# From the CombiSolv-Exp solvation set (Vermeire and Green 2021)
# Assay: solvent given as SMILES
# [1] = in CCCCCCCCC=CCCCCCCCC(=O)OCC(COC(=O)CCCCCCCC=CCCCCCCCC)OC(=O)CCCCCCCC=CCCCCCCCC
compound,measurement,setting,value
CC=C(C)C,"solvation free energy, 298 K",in BrC(Br)C(Br)Br,-2.68 kcal/mol
same,"solvation free energy, 298 K",in C1=Cc2ccccc2C1,-3.05 kcal/mol
same,"solvation free energy, 298 K",in C=CCCCCCCCCCCCCCC,-2.97 kcal/mol
same,"solvation free energy, 298 K",in CC1COC(=O)O1,-2.09 kcal/mol
same,"solvation free energy, 298 K",in CC(=O)N(C)C,-2.58 kcal/mol
same,"solvation free energy, 298 K",in CC(=O)c1ccccc1,-2.79 kcal/mol
same,"solvation free energy, 298 K",in CC(C)(C)O,-3.22 kcal/mol
same,"solvation free energy, 298 K",in CCCCC#N,-2.9 kcal/mol
same,"solvation free energy, 298 K",in CCCCCC#N,-2.96 kcal/mol
same,"solvation free energy, 298 K",in CCNC(C)=O,-2.69 kcal/mol
same,"solvation free energy, 298 K",in CN1CCCC1=O,-2.51 kcal/mol
same,"solvation free energy, 298 K",in CN(C)C=O,-2.56 kcal/mol
same,"solvation free energy, 298 K",in CN(C)P(=O)(N(C)C)N(C)C,-2.61 kcal/mol
same,"solvation free energy, 298 K",in CNC(C)=O,-2.54 kcal/mol
same,"solvation free energy, 298 K",in CNC=O,-2.17 kcal/mol
same,"solvation free energy, 298 K",in CS(C)=O,-1.97 kcal/mol
same,"solvation free energy, 298 K",in Cc1cccc2ccccc12,-2.88 kcal/mol
same,"solvation free energy, 298 K",in Cc1cccc(O)c1,-2.63 kcal/mol
same,"solvation free energy, 298 K",in ClC(Cl)C(Cl)Cl,-3.16 kcal/mol
same,"solvation free energy, 298 K",in Clc1cccc2ccccc12,-2.8 kcal/mol
same,"solvation free energy, 298 K",in N#CCCCC#N,-1.67 kcal/mol
same,"solvation free energy, 298 K",in N#CCCCCC#N,-1.98 kcal/mol
same,"solvation free energy, 298 K",in N#CCc1ccccc1,-2.48 kcal/mol
same,"solvation free energy, 298 K",in N#Cc1ccccc1,-2.89 kcal/mol
same,"solvation free energy, 298 K",in NCc1ccccc1,-2.67 kcal/mol
same,"solvation free energy, 298 K",in Nc1ccccc1,-2.3 kcal/mol
same,"solvation free energy, 298 K",in O,1.37 kcal/mol
same,"solvation free energy, 298 K",in O=C1CCCCC1,-3.09 kcal/mol
same,"solvation free energy, 298 K",in O=C(O)C(Cl)Cl,-2.63 kcal/mol
same,"solvation free energy, 298 K",in OCCO,-0.76 kcal/mol
same,"solvation free energy, 298 K",in OCc1ccccc1,-2.44 kcal/mol
COc1ccccc1OC,"solvation free energy, 298 K",in O,-5.33 kcal/mol
C=C(C)C1=CC=C(C)CC1,"solvation free energy, 298 K",in O,-1.35 kcal/mol
CCOC(C)OCC,"solvation free energy, 298 K",in ClCCCl,-5.27 kcal/mol
same,"solvation free energy, 298 K",in O,-3.28 kcal/mol
CC(C)Cc1cnccn1,"solvation free energy, 298 K",in O,-5.04 kcal/mol
C1=CC=CCC=C1,"solvation free energy, 298 K",in O,-0.99 kcal/mol
c1ccc(Oc2ccccc2)cc1,"solvation free energy, 298 K",in O,-2.87 kcal/mol
NCc1ccccc1,"solvation free energy, 298 K",in O,-6.34 kcal/mol
ClC(Cl)(Cl)Br,"solvation free energy, 298 K",in CS(C)=O,-4.78 kcal/mol
CCOC(C)=O,"solvation free energy, 298 K",in Brc1cccc2ccccc12,-3.95 kcal/mol
same,"solvation free energy, 298 K",in C1CCOC1,-4.56 kcal/mol
same,"solvation free energy, 298 K",in C1COCCO1,-4.49 kcal/mol
same,"solvation free energy, 298 K",in C=CCCCCCCCCCCCCCC,-3.23 kcal/mol
same,"solvation free energy, 298 K",in CC(=O)N(C)C,-4.23 kcal/mol
same,"solvation free energy, 298 K",in CC(=O)OCc1ccccc1,-4.29 kcal/mol
same,"solvation free energy, 298 K",in CC(C)CC(C)(C)C,-3.53 kcal/mol
same,"solvation free energy, 298 K",in CC(C)CCCC(C)CCCC(C)CCCCC(C)CCCC(C)CCCC(C)C,-3.2 kcal/mol
same,"solvation free energy, 298 K",in CC(C)O,-3.9 kcal/mol
same,"solvation free energy, 298 K",in CCC(C)=O,-4.49 kcal/mol
same,"solvation free energy, 298 K",in CCCC=O,-4.49 kcal/mol
same,"solvation free energy, 298 K",in CCCCC(CC)COC(=O)CCCCC(=O)OCC(CC)CCCC,-3.73 kcal/mol
same,"solvation free energy, 298 K",in CCCCCC,-3.61 kcal/mol
same,"solvation free energy, 298 K",in CCCCCC=CCC=CCCCCCCCC(=O)O,-3.67 kcal/mol
same,"solvation free energy, 298 K",in CCCCCCC,-3.53 kcal/mol
same,"solvation free energy, 298 K",in CCCCCCCC,-3.4 kcal/mol
same,"solvation free energy, 298 K",[1],-3.72 kcal/mol
same,"solvation free energy, 298 K",in CCCCCCCCCC,-3.28 kcal/mol
same,"solvation free energy, 298 K",in CCCCCCCCCCCCCC,-3.24 kcal/mol
same,"solvation free energy, 298 K",in CCCCCCCCCCCCCCCC,-3.23 kcal/mol
same,"solvation free energy, 298 K",in CCCCCCCCO,-3.69 kcal/mol
same,"solvation free energy, 298 K",in CCCCCO,-3.87 kcal/mol
same,"solvation free energy, 298 K",in CCCCCl,-4.32 kcal/mol
same,"solvation free energy, 298 K",in CCCCN(C=O)CCCC,-3.96 kcal/mol
same,"solvation free energy, 298 K",in CCCCO,-3.97 kcal/mol
same,"solvation free energy, 298 K",in CCO,-4.06 kcal/mol
same,"solvation free energy, 298 K",in CCOC(=O)c1ccccc1C(=O)OCC,-3.94 kcal/mol
same,"solvation free energy, 298 K",in CCOCCO,-4.14 kcal/mol
same,"solvation free energy, 298 K",in CCOP(=O)(OCC)OCC,-4.13 kcal/mol
same,"solvation free energy, 298 K",in CN1CCCC1=O,-4.16 kcal/mol
same,"solvation free energy, 298 K",in CN1CCCCC1=O,-4.16 kcal/mol
same,"solvation free energy, 298 K",in CN1CCN(C)C1=O,-3.98 kcal/mol
same,"solvation free energy, 298 K",in CN(C)C=O,-4.32 kcal/mol
same,"solvation free energy, 298 K",in CNC(C)=O,-4.04 kcal/mol
same,"solvation free energy, 298 K",in CO,-4.38 kcal/mol
same,"solvation free energy, 298 K",in COP(=O)(OC)OC,-4.28 kcal/mol
same,"solvation free energy, 298 K",in CS(C)=O,-3.88 kcal/mol
same,"solvation free energy, 298 K",in Cc1ccc(C)cc1,-4.21 kcal/mol
same,"solvation free energy, 298 K",in Cc1cccc(C)c1,-4.15 kcal/mol
same,"solvation free energy, 298 K",in ClCCCl,-4.71 kcal/mol
same,"solvation free energy, 298 K",in ClCCl,-5.22 kcal/mol
same,"solvation free energy, 298 K",in Clc1ccccc1,-4.43 kcal/mol
same,"solvation free energy, 298 K",in NC=O,-3.61 kcal/mol
same,"solvation free energy, 298 K",in O,-2.95 kcal/mol
same,"solvation free energy, 298 K",in O=C1CCCCC1,-4.33 kcal/mol
same,"solvation free energy, 298 K",in O=CN1CCOCC1,-3.89 kcal/mol
same,"solvation free energy, 298 K",in OCCOCCO,-3.53 kcal/mol
same,"solvation free energy, 298 K",in [2H]O[2H],-3.02 kcal/mol
same,"solvation free energy, 298 K",in c1ccc2ncccc2c1,-4.07 kcal/mol
CC(C)CC(=O)O,"solvation free energy, 298 K",in O,-6.09 kcal/mol
CC1=CCC(=C(C)C)CCC(C)=CCC1,"solvation free energy, 298 K",in O,-0.37 kcal/mol
COS(=O)(=O)OC,"solvation free energy, 298 K",in O,-5.1 kcal/mol
Clc1cc2c(cc1Cl)Oc1cc(Cl)c(Cl)cc1O2,"solvation free energy, 298 K",in O,-3.37 kcal/mol
CCC(C)CC,"solvation free energy, 298 K",in C=CCCCCCCCCCCCCCC,-3.42 kcal/mol
same,"solvation free energy, 298 K",in CC#N,-2.58 kcal/mol
same,"solvation free energy, 298 K",in CCCCCCCCCCCCCCCC,-3.55 kcal/mol
same,"solvation free energy, 298 K",in CCCCCO,-3.33 kcal/mol
same,"solvation free energy, 298 K",in CCCCO,-3.19 kcal/mol
same,"solvation free energy, 298 K",in O,2.47 kcal/mol
CCCCCCCCCCCCCCCC(=O)OCC,"solvation free energy, 298 K",in O,-7.23 kcal/mol
C=CC(=C)CCC=C(C)C,"solvation free energy, 298 K",in O,-0.5 kcal/mol
O=[N+]([O-])c1c(Cl)c(Cl)cc(Cl)c1Cl,"solvation free energy, 298 K",[1],-10.8 kcal/mol
same,"solvation free energy, 298 K",in O,-3.77 kcal/mol
Nc1ncnc2nc[nH]c12,"solvation free energy, 298 K",in C=CCCCCCCC=C,-10.2 kcal/mol
same,"solvation free energy, 298 K",in C=CCCCCCCCCCCCCCC,-9.84 kcal/mol
same,"solvation free energy, 298 K",in O,-17.4 kcal/mol
C=C1CCC23CC1C(C)(C)C2CCC3C (stereo unspecified),"solvation free energy, 298 K",in O,0.8 kcal/mol
FC(F)(F)Cl,"solvation free energy, 298 K",in CCCCCCC,-0.6 kcal/mol
same,"solvation free energy, 298 K",in CCCCCCCC,-0.53 kcal/mol
same,"solvation free energy, 298 K",in CCCCCCCC(=O)OCC(COC(=O)CCCCCCC)OC(=O)CCCCCCC,-0.03 kcal/mol
same,"solvation free energy, 298 K",in CCCCCCCCC,-0.46 kcal/mol
same,"solvation free energy, 298 K",in CCCCCCCCO,-0.06 kcal/mol
same,"solvation free energy, 298 K",in CN1CCCC1=O,0.23 kcal/mol
same,"solvation free energy, 298 K",in CN(C)C=O,0.08 kcal/mol
same,"solvation free energy, 298 K",in ClC(Cl)(Cl)Cl,-0.6 kcal/mol
same,"solvation free energy, 298 K",in O,2.31 kcal/mol
